Test results as given in US20110251069A1, “ISOXAZOLE DERIVATIVES FOR USE AS PLANT GROWTH REGULATORS” (SYNGENTA CROP PROTECTION LLC, priority 2008, published 2011).

Tested on: wheat plants cultivar (cv.). Riband
Assay: Biological evaluation of plant growth regulation effects on wheat
Format: in vivo
Details: 200 ppm; 2 weeks old wheat plants cv. Riband sprayed with formulated compound; assessed after 8 days at 22° C. and 80% r. h. in a greenhouse
Method: Biological Evaluation of Plant Growth Regulation Effects on Wheat
2 weeks old wheat plants cultivar (cv.). Riband were treated with the formulated test compound in a spray chamber. After an incubation period of 8 days at 22° C. and 80% relative humidity (r. h.) in a greenhouse, the plant growth regulating effects were assessed.

Question: How did the “plant growth regulating effects” value turn out when `OC(c1cccnc1)c1c(-c2ccccc2Cl)csc1-c1ccc(F)cc1F` (stereo not shown) [Compound 175, 2-(2,4-Difluorophenyl)-4-(2-chlorophenyl)-3-[(3-pyridyl)hydroxymethyl]-thiophene] was run?
Answer: plant height decrease
